Experimental data: paper PMC5063058, “Cephalosporins inhibit human metallo β-lactamase fold DNA repair nucleases SNM1A and SNM1B/apollo” (Chemical Communications (Cambridge, England), 2016)

Key:
[1] = real-time fluorescence nuclease assay (fluorescein/BHQ1 20-nt ssDNA); type: biochemical, Homo sapiens; conditions: read-out: IC50 SNM1A ^a /μM
From the text: (§1) real-time fluorescence nuclease assay (fluorescein/BHQ1 20-nt ssDNA) on SNM1B

[2] = target: T1, SNM1A (Homo sapiens, UniProt Q6PJP8); assay: as above; type: biochemical
T1 construct: gene DCLRE1A; 5'-3' exonuclease with MBL and beta-CASP domains
T1 sequence (Q6PJP8 700-1040): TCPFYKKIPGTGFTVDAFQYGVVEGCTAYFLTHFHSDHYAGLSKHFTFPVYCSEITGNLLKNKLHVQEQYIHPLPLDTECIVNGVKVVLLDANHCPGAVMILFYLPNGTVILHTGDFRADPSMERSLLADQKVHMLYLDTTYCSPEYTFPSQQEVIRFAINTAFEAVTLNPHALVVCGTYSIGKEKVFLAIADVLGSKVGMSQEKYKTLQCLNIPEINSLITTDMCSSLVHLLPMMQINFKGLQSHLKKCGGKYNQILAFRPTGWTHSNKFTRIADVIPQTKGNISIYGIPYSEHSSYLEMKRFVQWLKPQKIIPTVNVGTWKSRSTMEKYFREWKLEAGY
From the text: real-time fluorescence nuclease assay (fluorescein/BHQ1 20-nt ssDNA) on SNM1A

[3] = target: T2, SNM1B (Homo sapiens, UniProt Q9H816); assay: as above; type: biochemical
T2 construct: gene DCLRE1B; 5'-3' exonuclease with MBL and beta-CASP domains
T2 sequence (Q9H816 1-335): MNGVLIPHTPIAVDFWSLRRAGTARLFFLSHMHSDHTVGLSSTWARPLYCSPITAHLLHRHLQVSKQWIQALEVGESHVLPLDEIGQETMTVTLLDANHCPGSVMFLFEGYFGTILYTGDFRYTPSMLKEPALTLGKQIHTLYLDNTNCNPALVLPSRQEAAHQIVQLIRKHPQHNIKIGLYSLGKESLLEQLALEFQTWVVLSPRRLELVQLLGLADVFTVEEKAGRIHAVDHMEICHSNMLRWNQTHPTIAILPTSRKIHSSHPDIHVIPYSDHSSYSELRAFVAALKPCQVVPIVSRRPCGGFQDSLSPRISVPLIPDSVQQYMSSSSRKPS
From the text: as §1

[4] = target: T1, SNM1A; assay: quantitative 1H NMR binding assay

| Structure (SMILES) | IC50 [1] [µM] | IC50 [2] [µM] | IC50 [3] [µM] | Kd [4] [µM] |
| --- | --- | --- | --- | --- |
| CC(C)(O/N=C(\C(=O)N[C@@H]1C(=O)N2C(C(=O)[O-])=C(C[n+]3ccccc3)CS[C@H]12)c1csc(N)n1)C(=O)O [Ceftazidime] | > 500 | > 500 |  |  |
| CC(=O)OCC1=C(C(=O)O)N2C(=O)[C@@H](N)[C@H]2SC1 [compound 1, 7-ACA] |  | 7 ± 1 | 32 ± 10 |  |
| CC(=O)OCC1=C(C(=O)O)N2C(=O)[C@@H](NC(=O)CCC[C@@H](N)C(=O)O)[C@H]2SC1 [compound 2, Cephalosporin C] |  | 61 ± 27 | > 500 |  |
| CO/N=C(\C(=O)N[C@@H]1C(=O)N2C(C(=O)O)=C(COC(C)=O)CS[C@H]12)c1csc(N)n1 [compound 3, Cefotaxime] |  | 5 ± 2 | 129 ± 20 |  |
| CO/N=C(\C(=O)N[C@@H]1C(=O)N2C(C(=O)O)=C(CSc3nc(=O)c(=O)[nH]n3C)CS[C@H]12)c1csc(N)n1 [compound 4, Ceftriaxone] |  | 4 ± 2 | 40 ± 14 | 19 ± 4 |
